# Patent US20250108088A1, “REGENERATIVE PEPTIDES AND METHODS FOR USE THEREOF” (priority 2023, published 2025)
# Assays:
# HNDF fibroblasts = assay: Fibroblast cell proliferation (EDU); assay type: cell-based, human; details: N = 3; for Fibroblast proliferation, Representative value from experiments (% change relative to control): most effective significant concentration
# Protocol: Fibroblast proliferation is an important component of tissue regeneration. To determine if the peptides of the disclosure affect fibroblast proliferation, HNDFs were grown as described above, and split from 1-10 cm plates to 4-24 well plates. After allowing the cells to grow overnight, normal media was replaced with starvation media (1% FBS in DMEM). 10 ng/ml of fibroblast growth factor (FGF) served as a positive control, untreated cells (starvation media only) served as a negative control, and different concentrations of the peptides as test articles. The cells were then exposed to the peptides for a day before adding 5-Ethynyl-2′-deoxyuridine (EDU) EDU signal marker for 2-4 hours to assess DNA synthesis and cell proliferation.
# The fibroblasts were fixed in PFA for 10-15 minutes, then washed 2× in 4% BSA. 0.1% Triton X-100 in PBS was added for 20 min at 23° C. to permeabilize the cells. The cells were washed 2× in 4% BSA and the following reaction mixture was added: 0.25% of 488 iFlour azide, 4% CuSO, 10% Sodium Ascorbate in PBS. The cells were incubated at 23° C. for 30 minutes. The cells were washed in BSA 1× and in PBS 1×. The cells were also stained for DAPI for 30 minutes at 23° C. The cells were washed 2× in PBS and maintained in PBS.
# Plates were imaged using the Celigo Imaging Cytometer by Nexcelcom. The amount of fluorescent expression of EDU and DAPI were quantified to determine the amount of EDU/field (and thus the percentage of fibroblast cells dividing).
# Because the concentration required to induce an effect with each peptide was not known, each peptide was tested in 3 concentrations: 10 ng/ml, 100 ng/ml, and 1000 ng/ml as shown in Table 4A and Table 4B.
# [1] = system: Normal human dermal fibroblasts (HNDF); assay: Myofibroblast transition assay (MFT), aSMA immunofluorescence; assay type: cell-based; details: N = 3; for Myofibroblast transition (MFT), aSMA/cell, % change relative to control: TGF-Beta induced HNDF, control of no peptide; for MFT, Representative value from experiments (% change relative to control): most effective significant concentration of 10, 100, 1000 ng/ml
# From the text: The myofibroblast transition (MFT) assay determines the effect of the peptide on inhibiting the transition of fibroblasts to myofibroblasts. The extracellular matrix produced by myofibroblasts may be produced in excess and may not be remodeled during tissue healing, leaving behind the fibrous connective tissue that forms a scar. Thus, the ability to regulate the degree of MFT may enable control of scarring. To determine if the peptides provided herein affect MFT, the following assay was performed.
# Normal human dermal fibroblasts (HNDF) were cultured in high glucose Dulbecco's modified eagle medium (DMEM) supplemented with 10% fetal bovine serum (FBS) and 5 ml of 10,000 units of penicillin/streptomycin. Cells were cultured on 10 cm plates with media changes every 2 days. Cells were passaged in 0.25% Trypsin/EDTA after achieving 80% confluency.
# To induce myofibroblast transition (MFT), normal human dermal fibroblasts (HNDFs) were split from 1-10 cm plates to 5-96 well plates. Cells were then allowed to grow the next day. The following day, cells were serum starved (1% FBS in DMEM) for 4 hours prior to adding 20 ng/ml of TGF-Beta to all wells of the plate. 1000 μM of Vactosertib (TEW-7197/EW-7197) was added to serve as a positive control and different concentrations of peptides were added to serve as the test articles. The cells were then exposed to the compounds for 5 more days before fixation.
# The cells were fixed in paraformaldehyde (PFA) for 10-15 minutes, then washed 2× in PBS. Cells were blocked in 4% BSA for 30 minutes at 23° C. Cells were stained with the primary alpha-smooth muscle actin (aSMA) antibody (1:100) for 1 hour at 23° C. or left out at 4° C. overnight. Cells were rinsed 2× with BSA and then the secondary antibody mix was added: Alexa 488 (1:500) and DAPI (1:1000) for 30 min at 23° C. or 1 hr at 4° C. The plates were covered during staining, then rinsed 2× in BSA and stored in PBS.
# Plates were imaged using the Celigo Imaging Cytometer by Nexcelcom. The ratio of fluorescent expression of alpha-smooth muscle actin (aSMA) and DAPI were quantified to determine the amount of aSMA/cell.
# The change (normalized to the control) in MFT for each concentration is shown along with the p value for all experiments relative to the control of no peptide.
# [2] = system: interleukin-8 (IL-8) production in human fibroblasts; assay: Fibroblast inflammation assay (LPS-induced IL-8, ELISA); assay type: cell-based; details: LPS induction
# Protocol: Inflammation in fibroblasts leads to the production of the chemokine interleukin-8 (IL-8), which stimulates fibroblast to myofibroblast transition (MFT) thereby enhancing scar formation. To determine if the peptides of the instant disclosure affect fibroblast response to inflammation and fibroblast IL-8 production, the following assays were performed.
# Human fibroblasts were grown as described above. HNDFs were plated in 96 well plates at a concentration of 1×10^4 cells/well and allowed to incubate overnight. The next day cells were dosed with 5 μg/mL of LPS with and without the peptides. The negative control contained only media and vehicle, while the positive control was dosed with lipopolysaccharides (LPS) and dexamethasone (50 μg/ml). After 24 hours, the media was removed to measure IL6 and IL8 cytokine levels using ELISA. A standard curve was plotted in excel. All data were blank subtracted and then fit onto the curve to calculate cytokine concentrations.
Substance,"Myofibroblast transition (MFT), aSMA/cell, % change relative to control ([1]; 100 ng/ml peptide) [%]","MFT, Representative value from experiments (% change relative to control) [1]","Myofibroblast transition (MFT), aSMA/cell, % change relative to control ([1]; 10 ng/ml peptide) [%]","Myofibroblast transition (MFT), aSMA/cell, % change relative to control ([1]; 1000 ng/ml peptide) [%]",further results
AATHEFGHSLGLSH [MBm1],–,–,–,–,"Fibroblast proliferation (% change relative to control) (HNDF fibroblasts; 100 ng/ml peptide): 0.2919%; Fibroblast proliferation, Representative value from experiments (% change relative to control) (HNDF fibroblasts): 0.2919 (p = 0.044) %"
ERDLK [MBb14],–,–,–,–,"Fibroblast proliferation (% change relative to control) (HNDF fibroblasts; 10 ng/ml peptide): 1.094%; Fibroblast proliferation, Representative value from experiments (% change relative to control) (HNDF fibroblasts): 1.094 p = (0.029) %"
FEDVIAEP [MBa5],–,–,–,–,"Fibroblast proliferation (% change relative to control) (HNDF fibroblasts; 10 ng/ml peptide): 0.5133%; Fibroblast proliferation, Representative value from experiments (% change relative to control) (HNDF fibroblasts): 0.5133 (p = 0.004) %"
GYRCSKG [MBa7],–,–,–,–,"Fibroblast proliferation (% change relative to control) (HNDF fibroblasts; 10 ng/ml peptide): 0.3483%; Fibroblast proliferation (% change relative to control) (HNDF fibroblasts; 1000 ng/ml peptide): 0.4644%; Fibroblast proliferation, Representative value from experiments (% change relative to control) (HNDF fibroblasts): 0.4644 p = (0.01) %"
IAHELGHNLGMSH [MBb25],−0.1769,−0.1769 p = (0.008) %,–,–,–
IDFEDVIAEP [MBa4],–,–,–,–,"Fibroblast proliferation (% change relative to control) (HNDF fibroblasts; 1000 ng/ml peptide): 0.8384%; Fibroblast proliferation, Representative value from experiments (% change relative to control) (HNDF fibroblasts): 0.8384 p = (0.037) %"
IGERCQYRDLKWWELR [MBWhit44],−0.5753,−0.702 p = (0.025) %,−0.702,−0.6111,–
IGPGLP [MBb76],−0.03421,−0.1847 p = (0.009) %,–,−0.1847,–
IRTLDCDADKKDYCLFGRCQYIVELETFRCRCQKGYYGERCVYLEL [EA-2],−0.3241,−0.3241 p = (0.014) %,−0.1343,−0.00716,–
ITCPHCQ [MBa9],–,−0.3194 p = (0.02) %,–,−0.3194,–
KTHPGG [MBWhit38],−0.3798,−0.3798 p = (0.006) %,–,–,–
LKEKKPAKEK [PC-1],–,−0.4788 p = (0.038) %,–,−0.4788,–
LPRDER [MBb3.2],–,−0.3874 p = (0.003) %,–,−0.3874,–
MDQGYPKETVDDFPG [MBBey12],−0.6665,−0.6665 p = (0.007) %,–,−0.4491,–
NTCHQCGLRKRLRKFRNK [MBb35],−0.3719,−0.4001 p = (0.016) %,–,−0.4001,–
PHKGLFCHFGSPANRKIGV [MBWhit47],−0.5896,−0.6575 p = (0.021) %,−0.6575,−0.5755,–
PKPQP [MBb28],−0.243,−0.243 p = (0.006) %,–,−0.1881,effect on IL-8 inhibition in fibroblasts relative to the negative control [2]: low but significant effect
PPSILGLRKRLRKFRNK [MBb44],−0.1751,−0.1751 p = (0.005) %,–,–,–
QLFEDVIAEP [MBBey 38],–,−0.3071 p = (0.007) %,−0.3071,–,–
RNPDSPQ [MBBey14],−0.3863,−0.5336 p = (0.012) %,−0.3781,−0.5336,–
RVIWA [MBb4.2],−0.2113,−0.2416 p = (0.003) %,–,−0.2416,–
RWMAP [MBb74],–,−0.3048 p = (0.019) %,0.04975,−0.3048,–
SAYGVSKGLRKRLRKFRNK [MBb51],–,−0.5028 p = (0.042) %,−0.5028,−0.3773,"Fibroblast proliferation (% change relative to control) (HNDF fibroblasts; 100 ng/ml peptide): 0.3099%; Fibroblast proliferation (% change relative to control) (HNDF fibroblasts; 1000 ng/ml peptide): 0.4175%; Fibroblast proliferation, Representative value from experiments (% change relative to control) (HNDF fibroblasts): 0.4175 p = (0.025) %"
SDAAVDTSSEITTKDLKEKKEVVEEAENGR [PS-2],−0.498,−0.498 p = (0.048) %,−0.4315,–,–
SSSGLGLRKRLRKFRNK [MBb50],–,–,–,–,"Fibroblast proliferation (% change relative to control) (HNDF fibroblasts; 100 ng/ml peptide): 0.3589%; Fibroblast proliferation, Representative value from experiments (% change relative to control) (HNDF fibroblasts): 0.3589 p = (0.025) %"
VAAHELGHSLGMGH [MBm2],−0.3275,−0.4235 p = (0.007) %,−0.4235,−0.2058,–
VCDEPKDQTVVGPALAAYR [MBWhit46],−0.6191,−0.6328 p = (0.031) %,−0.534,−0.6328,–
VLFEDVIAEP [MBBey 37],–,−0.2873 p = (0.018) %,–,−0.2873,–
VYFVIKT [MBBey41],–,−0.691 p = (0.021) %,–,−0.691,–
WVSGL [MBb7],−0.1848,−0.2139 p = (0.02) %,−0.2139,–,–
